Measured values: a melting point compilation (Tetko et al.; mined from patent text by program, amines drawn as free bases though some values may be those of a salt)

Row | melting point [°C] | SMILES
1 | 148 to 150 | CCCCNC(=O)[C@@H]1C[C@]2(NC(=O)N(CCCCl)C2=O)c2cc(F)ccc2O1
2 | 165 to 170 | CC(=O)OCC1OC(OC2C(COC(C)=O)OC(Oc3ccc([N+](=O)[O-])cc3)C(OC(C)=O)C2OC(C)=O)C(OC(C)=O)C(OC(C)=O)C1OC(C)=O (configuration not stated)
3 | 246 | CN(C)C(=O)CC1(O)C(=O)Nc2ccc(I)cc21 (configuration not stated)
4 | 103 to 106 | CC(C)(CCl)C(=O)N(O)Cc1ccc(Cl)cc1Cl
5 | 219 to 220 | CSc1ccc(NC(=O)Nc2cc(-c3c(-c4ccc(F)c(C)c4)nc4cccnn34)ccn2)cc1
6 | 65 to 67 | Cc1ccc(S(=O)(=O)OCC2CN(C)c3ccc(Cl)cc3O2)cc1 (configuration not stated)
7 | 142 to 144 | CN(c1cccc2cc(C3=NCC(CN4CCSCC4)S3)[nH]c12)S(=O)(=O)c1ccccn1 (configuration not stated)
8 | 52 to 53 | CC(=O)OC[C@](O)(CO)c1ccc(F)cc1F
9 | 178 to 179 | Oc1ccc(N2CCN(c3ccc(C(F)(F)F)cn3)CC2)cc1
10 | 187 to 189 | COC(=O)c1cccc(C(=O)c2[nH]c3cc(Cl)ccc3c2N)c1
11 | 165 to 167 | C#CC[C@H](c1nc2cc(Cl)ccc2c(=O)n1Nc1ccccc1)N(CCCN)C(=O)c1cc(F)cc(F)c1
12 | 177 to 179 | CS(=O)(=O)c1ccc(-c2c(-c3ccccc3)nc3n2CCS3)cc1
13 | 76 | O=C(OCCCO)c1cc([N+](=O)[O-])cc([N+](=O)[O-])c1
14 | 148 to 149 | CC(=O)Nc1cccc2cccc(N=[N+]=[N-])c12
15 | 310 | CCn1ncc2c(NCC34CC5CC(CC(C5)C3)C4)c3ccccc3nc21
16 | 120 to 123 | O=CN(O)C(CS(=O)(=O)c1ccc(Oc2ccc(OC(F)(F)F)cc2)cc1)CS(=O)(=O)N1CCCC1 (configuration not stated)
17 | 149 to 151 | CN(C(=O)CCS)c1nnc(-c2cccnc2)s1
18 | 239 to 240 | NC(=O)c1c(C(=O)O)cnn1-c1ccc(Cl)cc1Cl
19 | 129 to 131 | CCOC(=O)C1=C[C@@H](OC(CC)CC)[C@H](NC(C)=O)[C@H](O)C1
20 | 162 to 163 | CC(=O)c1ccc(OCC(O)COc2ccc(C#N)cc2)cc1O (configuration not stated)
21 | 250 to 252 | CC1(C)C=C(n2cccnc2=O)c2cc(C#N)ccc2O1
22 | 214 to 217 | COc1ccc(-c2cccc(C3SC(N4CCOCC4)=NC3=O)n2)cc1-c1ccccc1 (configuration not stated)
23 | 156 | CCOC(=O)Cc1nnc(-c2ccc(OC)cc2)n1-c1ccc(OC)cc1
24 | 115 | Nc1cccc2c(OCc3ccccc3)ccnc12
25 | 201 to 202 | CC(=O)Nc1c(C(=O)c2cccc(F)c2)[nH]c2cc(Cl)ccc12
26 | 91 | CCCCCCCC(=O)N(C)Cc1cccc(-c2ccc(C=CC(=O)O)c(F)c2)c1

Row | melting point [°C] | SMILES
27 | 88 to 90 | O=CCCNC(=O)c1ccc[nH]1
28 | 206 to 207 | CC(=O)NCc1cccc(Nc2nccc(-c3sc(C)nc3C)n2)c1
29 | 105 to 106 | CN(C)C=Nc1cnc(-c2cccc(CO)c2)nc1
30 | 95 to 97 | O=S(=O)(NCCCN1CCOCC1)C(F)(F)F
31 | 180 | CCOc1cc(NCCO)c([N+](=O)[O-])cc1O
32 | 46 to 48 | COc1nsc(Cl)c1Cl
33 | 105 to 135 | Nc1ccccc1NC(=O)c1cc2cccc(OCc3ccccn3)c2o1
34 | 158 to 161 | O=[N+]([O-])c1ccccc1CSc1nnnn1-c1ccccc1
35 | 48 to 50 | OCc1cc(-c2ccccc2)no1
36 | 191 to 193 | Cc1ccccc1N1CCN(CCn2c(=O)[nH]c3sccc3c2=O)CC1
37 | 254 to 255 | CSc1nnc2c(=O)c3ccc(Cl)cc3ccn12
38 | 82 to 85 | COc1ccc(CN(C)CCCCc2ccc(NC(=O)c3cnc4ccccc4n3)cc2)cc1OC
39 | 178 to 179 | COc1ccc(CN(C)CCOc2ccc(NC(=O)c3cccc4c(=O)c5cccc(OC)c5[nH]c34)c(C)c2)cc1OC
40 | 284 to 285 | O=C(O)c1ccc(-c2ccc(-c3ccc(C(F)(F)F)cc3)s2)cc1
41 | 121 to 123 | COCCOC(=O)Nc1cccc(C)c1COc1cccn2c(CO)c(C)nc12
42 | 157 to 159 | COc1cc2c(c3c1OC(C)(C)C3)C(c1cccc(N3CCN(C(=O)OC(C)(C)C)S3(=O)=O)c1)=NC(C)(C)C2
43 | 258 | O=C(O)C1Cc2sccc2C(=O)N1Cc1ccccc1 (configuration not stated)
44 | 193 to 198 | COc1ccc2nnc(-c3ncc([N+](=O)[O-])n3C)n2n1
45 | 307 to 308 | CCCc1c(C2=NN=C(C)Cc3cc4[nH]c(=O)oc4cc32)sc2ccccc12
46 | 240 to 242 | CC1NC(=O)NN=C1c1ccc2c(c1)CCC(=O)N2C (configuration not stated)
47 | 204 to 205 | CS(=O)(=O)c1ccc(-n2cnc3ccc(-c4nnc(CCc5cccc(C(F)(F)F)c5)o4)cc32)cc1
48 | 106 to 108 | O=C(NC1CCc2ccccc2C(CCCc2ccccc2)C1=O)OCc1ccccc1 (configuration not stated)
49 | 120 to 122 | O=C(NCCO)Nc1ccccc1
50 | 193 to 195 | Fc1cccc2cc3cccc(F)c3nc12
51 | 143 | C#Cc1cnn2c(C(F)F)cc(-c3ccc(Cl)c(C)c3)nc12
52 | 152 to 155 | CCCCOCCOc1ccc(-c2ccc3c(c2)C=C(C(=O)O)CCN3CC2CC2)cc1

Row | melting point [°C] | SMILES
53 | 121 to 123 | CCC(NC(=N)NC#N)c1ccccc1 (configuration not stated)
54 | 106 to 108 | CC(C)(C)C(=O)Oc1ccccc1C(=O)c1ccccc1OC(=O)C(C)(C)C
55 | 113 to 115 | Fc1cccc(C2OC3(CCN(Cc4ccccc4)CC3)N3CCCCC23)c1 (configuration not stated)
56 | 265 to 267 | N#Cc1ccc(NC(=O)Nc2ccc(S(N)(=O)=O)cc2)cc1
57 | 197 to 198 | O=C(CCl)Nc1ccc2c(c1NC(=O)c1cccc(F)c1)C(=O)c1ccccc1C2=O
58 | 95 to 96 | CCCCC1Sc2c(cc(OC)c(Cl)c2Cl)C1O (configuration not stated)
59 | 219 to 220 | O=C(NC1C(O)=COC2=C1SC([N+](=O)[O-])C2)c1ccc(C(F)(F)F)cc1 (configuration not stated)
60 | 287 to 290 | COC(=O)c1ccc(C(=O)NNC(=O)c2ccc(C(=O)OC)cc2)cc1
61 | 98 to 99 | CCOc1cc(Cl)ccc1Cn1nc(OC(C)C)cc1CCCOc1c(CC(=O)O)cccc1OC
62 | 117 to 118 | O=C(O)CSC(CCc1ccccc1)c1ccc(OCc2ccc3ccccc3n2)cc1 (configuration not stated)
63 | 155 to 156 | NS(=O)(=O)c1cc2cc(N3CCOCC3)ccc2s1
64 | 101 to 102 | CNC(=O)c1cccc(C=O)c1
65 | 84 to 86 | CCOC(=O)Cc1cc(C)c(C(=O)c2ccc(F)cc2)n1C
66 | 199 to 203 | Fc1ccc2c(NCc3ccccc3)nc(-c3cccnc3)nc2c1
67 | 217 to 220 | Cc1nc(-c2ccc(NS(=O)(=O)c3sc4ccc(F)cc4c3C)c(S(C)(=O)=O)c2)cs1
68 | 72 | O=C(OCc1ccccc1)N1CCSC1=S
69 | 111 to 113 | CCN(CC)Cc1nc(-c2ccc(OC)c(OC)c2)c2cc(OC)c(OC)cc2n1
70 | 140 to 141 | COC(=O)c1ccc(Cn2c(C)cn(C3CCc4ccccc4C3)c2=S)cc1 (configuration not stated)
71 | 246 to 248 | Cc1c(C(=O)Nc2cc(Cl)c(N3CCC(N4CCOCC4)CC3)c(Cl)c2)cnn1-c1ccc(Cl)cc1
72 | 58 to 60 | O=C(O)CCCCCNC(=O)C(CS)Cc1ccccc1 (configuration not stated)
73 | 146 | COc1ccc(/C=C/c2nc3ccccc3n2-c2ccccn2)cc1
74 | 108 to 109 | CC1=C(Cc2cccc(Br)c2)C(=O)C2C=CC=CC2C1=O (configuration not stated)
75 | 193 to 194 | Cc1c(N)nc(Cl)nc1Cl
76 | 177 to 179 | COc1ccc(-c2nc3sccn3c2/C=C/C(=O)c2cc(OC)c(OC)c(OC)c2)cc1
77 | 161 to 164 | c1c(C2CC2)n[nH]c1C1CC1
78 | 179 to 180 | CCOCc1nc2c(N)nc(C)c(C)c2n1CCCNC(=O)C(C)C

Row | melting point [°C] | SMILES
79 | 161 | CCCCOc1ccc(C(=O)Nc2ccc3cc(CN4CCCC4)cnc3c2C)cc1
80 | 137 to 139 | Cc1cc(C)c(N2CCC2=O)cc1NS(=O)(=O)C(F)(F)F
81 | 178 to 179 | COc1c(F)c(F)cc2c(=O)c(C(=O)O)cn(C3COC3)c12
82 | 245 to 246 | Cc1cc(CCC(=O)O)nc(-c2nc(=O)c3ccccc3s2)c1
83 | 101 to 102 | CCCc1c(OCCCCCOc2ccc3c(c2CCC)OC(C(=O)O)CC3)ccc(CC)c1O (configuration not stated)
84 | 81 to 82 | COC(=O)c1oc(C(C)(C)C)cc1NC(=O)Nc1ccc(F)cc1
85 | 165 to 168 | CCn1c(CC(=O)NOCc2ccccc2)nc2cc(F)c(N3CCN(C)CC3)cc21
86 | 142 to 145 | Cc1c(-c2ccccc2)oc2c(CS(=O)CCCl)cccc2c1=O (configuration not stated)
87 | 50 to 55 | CC#CCOc1ccc(S(=O)(=O)N(C)C(C(=O)NO)c2ccc(OCCCNC(=O)OCCCC)cc2)cc1 (configuration not stated)
88 | 152 to 155 | Cc1csc(-c2nc3c4ccccc4ccn3c2N)c1
89 | 223 to 224 | COC(=O)c1ccc(NC(=O)Nc2ccc(OC)c(C34CC5CC(CC(C5)C3)C4)c2)cc1
90 | 198 to 199 | CCOc1nc2cccc(C(=O)OC)c2n1Cc1ccc(-c2ccccc2C(N)=O)cc1
91 | 158 to 160 | NC(=O)N(O)CCNC(=O)c1cccn1Cc1ccc(Cl)cc1
92 | 285 | C[C@H](NC1Cc2ccccc2C1)C(=O)O
93 | 179 to 180 | Cc1ccc(S(=O)(=O)N(C)c2ccc(S(C)(=O)=O)cc2C#N)cc1
94 | 175 to 177 | CCn1c(=NC(C)=O)c(-c2c(Cl)cccc2Cl)cc2cnc(SC)nc21
95 | 120 to 121 | CON=C1CSc2cccc(Cl)c2CN1
96 | 150 to 151 | CCOC(=O)Oc1ccc(OC)c(N)c1
97 | 189 | CC(C)S(=O)(=O)c1ccc2c(c1)nc(CC(C)(C)C)n2CC1(O)CCOCC1
98 | 84 to 86 | C=CCc1cccc2c(=O)cc(-c3c(F)cccc3F)oc12
99 | 132 | Cn1cc(-c2cc(-c3cnc4ccccc4c3)ccn2)n(-c2ccc(C(C)(C)CN)cc2)c1=O
100 | 50 to 51 | CCCCCCCC1OC1CO (configuration not stated)
101 | 286 to 287 | CCCCc1sc(C(=O)O)c2c1-c1c(cnn1C)CC2
102 | 115 to 117 | CC(=O)N1CCc2cc(CC(C)Br)cc(C#N)c21 (configuration not stated)
